Experiments:
Type in all cases: in vivo, human
Huntington's Disease = assay: Case history 12, Sibutramine Patient No. 113
Retinitis Pigmentosa = assay: Case history 13
Excerpt: person one presented with a 40 year history of gradual loss of vision due to RP. For the past 10 years they had been almost completely blind except for well-lit large shapes visible to their right eye. They have been prone to falls with head injury and had developed a focal seizure disorder which had been also associated with “visions”, stammering, and confusion. Multiple treatments had been tried unsuccessfully by other physicians, and they were then referred to me.
One problem was that the effects faded after 4-6 hours and required multiple dosing. […] sleep was aided as well because of the relief from the frightening visual apparitions. The relief from stammering was also unexpected.

[1] = Overall clinical observations in the patients treated with sibutramine
Excerpt: The term sibutramine as used herein means compounds of sibutramine hydrochloride monohydrate, more specifically N,N-dimethyl-1-[1-(4-chlorophenyl)cyclobutyl]-3-methylbutylamine hydrochloride preferably in its monohydrate form, and enantiomers and analogues thereof, as described in U.S. Pat. Nos. 4,746,680, 4,929,629 and 5,436,272. Sibutramine is believed to inhibit reuptake of norepinephrine, serotonin and dopamine thereby intensifying their effects in the brain. Sibutramine is commercially available as MERIDIA®, Knoll Pharmaceutical Company, Mount Olive, N.J. Capsules are presently available with discrete dosages of 5, 10 and 15 mg for oral administration. The sibutramine is administered in a pharmaceutically active dose. The preferred dosage is about 5 mg three times a day but there is variation between patients for the best dose. It is believed that the cytochrome P450 system differs in individuals and the dose must be determined empirically in each patient. The effect of the cytochrome P450 system on metabolism of psychotropic drugs is discussed in “Intercom: The Experts Converse”, published by The Journal of Clinical Psychiatry, November 1995. […] It is possible that higher or lower doses can be used depending upon each individual. Therefore, more flexibility in available dosage is needed. Furthermore, means of administration such as injection, rectal suppository, or transdermal patches may be utilized. Finally, a long-acting slow-release means such as oral tablet or capsule would be the preferred route in view of the rapid metabolism noted (5 hour duration of action usually) in most of the patients.
Although the use of sibutramine has been described for the treatment of conditions such as obesity, depression, diabetic hyperglycemia, hyperlipidemia, senile dementia and related conditions, and Parkinson's disease, it has been discovered that sibutramine can be successfully used in treating other problems unrelated to these conditions. […] For example, patients with ADD previously treated with stimulants found it easier to eat when treated with sibutramine and gained weight. […] It was generally necessary to continue anti-depressant therapy along with the sibutramine therapy.
Above and beyond the known effects of sibutramine on serotonin, dopamine and norepinephrine activation, there is believed to be an effect of this medication on the endorphic opiate neurotransmitter system which is evident in the patients who have been relieved of pain, rage, anger, self-mutilation and particularly addiction to heroin. […] It would appear that sibutramine activates endorphins or, at the very least, modifies the endorphinergic opioid systems to promote serenity and lack of pain and stress, and to reduce craving for heroin. Such a mechanism which was previously unsuspected may have also contributed to the therapeutic effects of sibutramine herein described for PTSD, asocial behavior and fibromyalgic pain which have not been helped by serotonin, dopamine and norepinephrine potentiators. This is in contradistinction to the therapeutic effects of sibutramine on ADHD, chronic fatigue, and the symptoms of Tourette's and non-Tourette's diseases. Finally, a differentiation between the serotonin, dopamine and norepinephrine potentiation versus the opiate-like therapeutic effects of sibutramine may be made in terms of duration of action, whereas the serotonin, dopamine, norepinephrine agonist effects lasted in most patients for only 4-6 hours (therefore requiring tid dosage), the opiate effects appear to last all day and require only a single AM dosage.
These benefits were lost rapidly when either the patient was taken off sibutramine or when steroids, such as cortisone were concomitantly administered.

CC(C)CC(N(C)C)C1(c2ccc(Cl)cc2)CCC1.Cl (stereo not drawn) [sibutramine, N,N-dimethyl-1-[1-(4-chlorophenyl)cyclobutyl]-3-methylbutylamine hydrochloride]
ataxic gait with continued treatment (Huntington's Disease; gradually, continued sibutramine): improvements in their ataxic gait
time to relief after the first capsule (Huntington's Disease; sibutramine 5 mg): ≤ 20 min
cognitive, emotional, behavioral problems and ataxic gait (Huntington's Disease; sibutramine 5 mg three times a day, first capsule, person): complete relief of the cognitive, emotional, and behavioral problems but not with the ataxic gait
time after which effects faded (Retinitis Pigmentosa; sibutramine 5 mgs.): 4 to 6 h
visual apparitions (“visions”) (Retinitis Pigmentosa; sibutramine 5 mgs. t.i.d.): lost the “visions” which had upset them so
organization, alertness, stammering, vision (Retinitis Pigmentosa; sibutramine 5 mgs. t.i.d. Person one): better organization and alertness, decreased stammering, but also better vision by visual testing
highest dose ([1]; 15 mg 3 times daily): 45 mg
neurogenesis ([1]; believed, evidenced by increase in the hippocampus, enhanced mental and motor skills): induced neurogenesis
lowest effective dose ([1]; human, in vivo): 0.25 mg daily
onset of improvement ([1]; human, in vivo): alleviated within minutes or hours of treatment
duration of serotonin, dopamine, norepinephrine agonist effects ([1]; most patients): 4 to 6 h
depression ([1]; patients removed from anti-depressant medication): became depressed when removed from the anti-depressant medication and treated with sibutramine alone
symptoms of Post Traumatic Stress ([1]; patients with Post Traumatic Stress): relieved the symptoms of Post Traumatic Stress
duration of opiate effects ([1]; single AM dosage): last all day
duration of action ([1]; usually, in most of the patients): 5 h

From US6696495B2, “Treatment of disorders secondary to organic impairments” (Snowden Pharmaceuticals, LLC, priority 1998, dated 2004)
